ChEMBL document CHEMBL1201862, “PubChem BioAssay data set” (2004)
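Results reflect a 48-hour exposure of cells in 96-well plates to compound at five concentrations. GI50 marks 50% less growth.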 Active and inactive are the calls of the source. No stated cut-off is given here; in the data, active = GI50 up to about 1.1 µM and inactive = higher.

Experiments:
Assay in all cases: DTP human tumour cell line panel, 48 h
SF-268 = system: SF-268
SK-MEL-5 = system: SK-MEL-5
NCI/ADR-RES = system: NCI/ADR-RES
K562 = system: K562
SF-539 = system: SF-539
MCF7 = system: MCF7
OVCAR-5 = system: OVCAR-5
NCI-H460 = system: NCI-H460
SNB-75 = system: SNB-75
RXF 393 = system: RXF 393
MDA-MB-435 = system: MDA-MB-435
UO-31 = system: UO-31
SF-295 = system: SF-295
UACC-257 = system: UACC-257
SK-OV-3 = system: SK-OV-3
OVCAR-4 = system: OVCAR-4
HOP-92 = system: HOP-92
NCI-H226 = system: NCI-H226
TK-10 = system: TK-10
RPMI-8226 = system: RPMI-8226

| SMILES | GI50 (SF-268) | GI50 (SK-MEL-5) | GI50 (NCI/ADR-RES) | GI50 (K562) | GI50 (SF-539) | GI50 (MCF7) | GI50 (OVCAR-5) | GI50 (NCI-H460) | GI50 (SNB-75) | GI50 (RXF 393) | GI50 (MDA-MB-435) | GI50 (UO-31) | GI50 (SF-295) | GI50 (UACC-257) | GI50 (SK-OV-3) | GI50 (OVCAR-4) | GI50 (HOP-92) | GI50 (NCI-H226) | GI50 (TK-10) | GI50 (RPMI-8226) |
| --- | --- | --- | --- | --- | --- | --- | --- | --- | --- | --- | --- | --- | --- | --- | --- | --- | --- | --- | --- | --- |
| C[C@H]1COC2=C1C(=O)C(=O)c1c2ccc2c1CCCC2(C)C [CRYPTOTANSHINONE] | 1.9 µM (inactive) | 0.382 µM (active) | 2.79 µM (inactive) | 3.61 µM (inactive) | 3.35 µM (inactive) | 2.22 µM (inactive) | 16.1 µM (inactive) | 1.63 µM (inactive) | 0.881 µM (active) | 6.3 µM (inactive) | 1.42 µM (inactive) | 4.7 µM (inactive) | 1.68 µM (inactive) | 1.95 µM (inactive) | 11.6 µM (inactive) | 12.2 µM (inactive) | 40.8 µM (inactive) | 3.24 µM (inactive) | 8.18 µM (inactive) | 3.31 µM (inactive) |
| NCC[Se][Se]CCN | 16 µM (inactive) | 5.66 µM (inactive) | 9.31 µM (inactive) | 16.6 µM (inactive) | 10.6 µM (inactive) | 8.79 µM (inactive) | 5.56 µM (inactive) | 6.4 µM (inactive) | 10.6 µM (inactive) | 15.6 µM (inactive) | 12.3 µM (inactive) | 4.42 µM (inactive) | 3.2 µM (inactive) | 7.06 µM (inactive) | 8.15 µM (inactive) | 11.8 µM (inactive) | 19.3 µM (inactive) | 11 µM (inactive) | 13.3 µM (inactive) | 12.9 µM (inactive) |
| N#CCC(=O)N/N=C(\CCN1CCCC1)CC(c1ccccc1)c1c(O)c2ccccc2oc1=O (stereo not drawn) | > 100 µM (inactive) | > 72.1 µM (inactive) | 56.4 µM (inactive) | 62.1 µM (inactive) | > 88.5 µM (inactive) | 20.2 µM (inactive) | > 100 µM (inactive) | > 100 µM (inactive) | > 89.1 µM (inactive) | > 100 µM (inactive) | 57 µM (inactive) | 59.8 µM (inactive) | > 100 µM (inactive) | > 70.6 µM (inactive) | > 86.9 µM (inactive) | > 86.3 µM (inactive) | 27.7 µM (inactive) | > 89.5 µM (inactive) | > 78.9 µM (inactive) | 32.9 µM (inactive) |
| CC1(C)N=C(/C(C#N)=[N+](/[O-])C(=O)c2ccccc2)C(C)(C)N1O | > 100 µM (inactive) | > 100 µM (inactive) | > 100 µM (inactive) | > 100 µM (inactive) | > 100 µM (inactive) | > 100 µM (inactive) | > 100 µM (inactive) | > 100 µM (inactive) | > 100 µM (inactive) | > 100 µM (inactive) | > 100 µM (inactive) | > 100 µM (inactive) | > 100 µM (inactive) | > 100 µM (inactive) | > 100 µM (inactive) | > 100 µM (inactive) | > 100 µM (inactive) | > 100 µM (inactive) | > 100 µM (inactive) | > 100 µM (inactive) |
| COc1cc2c(cc1O)CCN(C)[C@H]2Cc1ccc(Oc2c(O)c(OC)cc3c2C[C@H]2c4c(c(OC)c(OC)c(OC)c4-3)CCN2C)cc1 [THALIFABERIDINE] | 5.66 µM (inactive) | 2.9 µM (inactive) | 5.56 µM (inactive) | 0.966 µM (active) | 5.9 µM (inactive) | 5.13 µM (inactive) | 7.5 µM (inactive) | 2.09 µM (inactive) | 4.51 µM (inactive) | 1.75 µM (inactive) | 3.51 µM (inactive) | 4.98 µM (inactive) | 5.79 µM (inactive) | 7.01 µM (inactive) | 5.42 µM (inactive) | 2.3 µM (inactive) | 1.69 µM (inactive) | 7.46 µM (inactive) | 6.11 µM (inactive) | 1.51 µM (inactive) |
| C[N+]1(CCN[N+]2(C)CCCCC2)CCc2ccccc2C1 (stereo not drawn) | > 100 µM (inactive) | > 100 µM (inactive) | > 100 µM (inactive) | > 100 µM (inactive) | 58.3 µM (inactive) | > 100 µM (inactive) | > 100 µM (inactive) | > 100 µM (inactive) | > 100 µM (inactive) | > 100 µM (inactive) | > 100 µM (inactive) | > 100 µM (inactive) | > 100 µM (inactive) | > 100 µM (inactive) | > 100 µM (inactive) | > 100 µM (inactive) | > 100 µM (inactive) | 60.4 µM (inactive) | > 100 µM (inactive) | > 100 µM (inactive) |
| N#CCCSC(=S)C1CCCC1=N (stereo not drawn) | > 100 µM (inactive) | > 100 µM (inactive) | > 100 µM (inactive) | > 100 µM (inactive) | > 100 µM (inactive) | > 100 µM (inactive) | > 100 µM (inactive) | > 100 µM (inactive) | 3.88 µM (inactive) | 42.4 µM (inactive) | > 100 µM (inactive) | > 100 µM (inactive) | > 100 µM (inactive) | > 100 µM (inactive) | > 100 µM (inactive) | > 100 µM (inactive) | > 100 µM (inactive) | > 100 µM (inactive) | > 100 µM (inactive) | > 100 µM (inactive) |
| S=c1c2cc(I)ccc2nc(S)n1Cc1ccccc1 | 6.43 µM (inactive) | 3.17 µM (inactive) | 3.37 µM (inactive) | 3.54 µM (inactive) | 10.3 µM (inactive) | 5.42 µM (inactive) | 17 µM (inactive) | 3.28 µM (inactive) | 2.69 µM (inactive) | 2.17 µM (inactive) | 4.1 µM (inactive) | 3.37 µM (inactive) | 2.99 µM (inactive) | 2.44 µM (inactive) | 4.1 µM (inactive) | 3.62 µM (inactive) | 2.69 µM (inactive) | 5.46 µM (inactive) | 4.55 µM (inactive) | 2.95 µM (inactive) |
| Nc1cccc(S(=O)(=O)Nc2nnc(S(N)(=O)=O)s2)c1 | > 100 µM (inactive) | > 100 µM (inactive) | > 100 µM (inactive) | > 100 µM (inactive) | > 100 µM (inactive) | > 100 µM (inactive) | > 100 µM (inactive) | > 100 µM (inactive) | > 100 µM (inactive) | > 100 µM (inactive) | > 100 µM (inactive) | > 100 µM (inactive) | > 100 µM (inactive) |  | > 100 µM (inactive) | > 100 µM (inactive) | > 100 µM (inactive) | > 100 µM (inactive) | > 100 µM (inactive) | > 100 µM (inactive) |
| CC[C@@]1(O)C(=O)OCc2c1cc1n(c2=O)Cc2cc3cc(OC)ccc3nc2-1 | 0.00509 µM (active) | 0.0211 µM (active) | 0.073 µM (active) | 0.123 µM (active) | 0.0033 µM (active) | 0.0041 µM (active) | 0.0452 µM (active) | 0.00607 µM (active) | 0.00427 µM (active) | 0.016 µM (active) | 0.0441 µM (active) | 0.0333 µM (active) | 0.008 µM (active) | 0.15 µM (active) | 0.0498 µM (active) | 0.00845 µM (active) | 0.0114 µM (active) | 0.016 µM (active) | 3.01 µM (inactive) | 0.107 µM (active) |
| OCC1OC(N2CCN(C3OC(CO)C(O)C(O)C3O)CC2)C(O)C(O)C1O (stereo not drawn) | > 100 µM (inactive) | > 100 µM (inactive) | > 100 µM (inactive) | > 100 µM (inactive) | > 100 µM (inactive) | > 100 µM (inactive) | > 100 µM (inactive) | > 100 µM (inactive) | > 100 µM (inactive) | > 100 µM (inactive) | > 100 µM (inactive) | > 100 µM (inactive) | > 100 µM (inactive) | > 100 µM (inactive) | > 100 µM (inactive) | > 100 µM (inactive) | > 100 µM (inactive) | > 100 µM (inactive) | > 100 µM (inactive) | > 100 µM (inactive) |
| C=C1N(S(=O)(=O)c2ccc(C)cc2)C(=O)OCC12CCCC2 |  | 25.4 µM (inactive) | 81.7 µM (inactive) | 94.2 µM (inactive) | > 100 µM (inactive) | > 100 µM (inactive) | > 100 µM (inactive) | 96.4 µM (inactive) | 14.1 µM (inactive) | > 100 µM (inactive) | > 100 µM (inactive) | 84.3 µM (inactive) | > 100 µM (inactive) | 80.4 µM (inactive) | 41.4 µM (inactive) | 72.6 µM (inactive) | > 100 µM (inactive) | > 100 µM (inactive) | > 100 µM (inactive) | > 100 µM (inactive) |
| COc1ccc(C(=O)/C=C2\C(=O)Nc3ccc(Br)cc32)cc1 | 16.4 µM (inactive) | 18.4 µM (inactive) | 1.71 µM (inactive) | 5.07 µM (inactive) | 7.93 µM (inactive) | 6.44 µM (inactive) | 19.3 µM (inactive) | 10 µM (inactive) | 14.3 µM (inactive) | 2.29 µM (inactive) | 6.75 µM (inactive) | 2.24 µM (inactive) | 16.2 µM (inactive) | 11.3 µM (inactive) | 15.6 µM (inactive) | 16.5 µM (inactive) | 3.24 µM (inactive) | 11.1 µM (inactive) | 1.68 µM (inactive) | 1.72 µM (inactive) |
| COc1cc2c3c4c1OCc1c5c(cc(c1-4)CC3[N+](C)(C)CC2)OCO5 (stereo not drawn) | 2.79 µM (inactive) | > 100 µM (inactive) | > 80.5 µM (inactive) | > 86.9 µM (inactive) | 11.2 µM (inactive) | > 100 µM (inactive) | > 100 µM (inactive) | > 100 µM (inactive) | 26.7 µM (inactive) | > 100 µM (inactive) | > 100 µM (inactive) | > 100 µM (inactive) | 6.05 µM (inactive) | > 100 µM (inactive) | > 100 µM (inactive) | > 100 µM (inactive) | > 100 µM (inactive) | 32.3 µM (inactive) | > 100 µM (inactive) | > 100 µM (inactive) |
